Laboratory results from patent US20240407993A1, “PEPTIDE HAVING ANTI-AGING ACTIVITY, AND USE THEREOF” (CAREGEN CO., LTD., priority 2021, published 2024).

Columns and labels:
AQP3 = AQP3 mRNA level by RT-PCR in keratinocytes; format: cell-based, human; conditions: HaCaT cells, peptide 1, 10, 50 μM, 24 hours; FIGS. 3A, 3C
Procedure: (§1) First, HaCaT cells were seeded in a 6-well plate at a cell density of 3×10^5 cell/well, and then the cells were cultured in DMEM medium containing 10% fetal bovine serum (FBS) for 24 hours. The cultured cells were washed once with serum free DMEM medium, and then the peptide of the present invention was mixed in 1 mL of the serum free DMEM medium at each of concentrations of 1, 10, and 50 μM, and dispensed into the cells. A positive control (PC) was treated with 100 nM of EGF instead of the above peptide. The cells were cultured in a CO2 incubator at 37° C. for 24 hours.
The cultured cells were washed twice with PBS, and then RNA was extracted from the cells using easy blue (iNtRON, Cat. No.: 17061, Korea). The extracted RNA was subjected to RT reaction using a kit (enzynomics, Cat. No.: RT200, Korea). Thereafter, RT-PCR was performed using a PCR kit (enzynomics, Cat. No.: R581T, Korea). The sequences of the primers of AQP3 and SIRT1 used in RT-PCR and the sequence of the primer of GAPDH used to compare the total RNA amount of each treatment group are shown in [Table 2].

NIH3T3 cells = assay: Intracellular ROS level after UVA irradiation (DCFH-DA, FACS) in fibroblasts; format: cell-based, mouse; conditions: 8 J/cm^2 UVA, peptide 1, 10, 50 μM, 24 hours after irradiation, FIG. 4A
Procedure: (§2) The reactive oxygen species level increases when UV is irradiated. Therefore, it was confirmed whether the reactive oxygen species level decreased again and the aging phenomenon caused by oxidative stress in cells was inhibited when treated with the peptide of the present invention.
as §1, with “First, NIH3T3 cells and” for “First,”, “5×10^5” for “3×10^5”, “cell/well, respectively,” for “cell/well,”, “2.5 mM” for “100 nM”, “N-Acetylcysteine (NaC)” for “EGF”, “peptide.” for “peptide. The cells were cultured in a CO2 incubator at 37° C. for 24 hours.”
(§3) The cells were cultured in a CO2 incubator at 37° C. for 1 hour. The medium of the cultured cells was transferred to a tube, 1 ml of PBS was added, and then the NIH3T3 cells were irradiated with 8 J/cm^2 of UVA and the HaCaT cells were irradiated with 15 mJ/cm^2 of UVB using a UV irradiator (VILBER LOURMAT, Cat No.: 3102-BSU, France). […] After centrifugation, the cells were washed with PBS, and a fluorescence value was measured through FACS.

HaCaT cells = assay: Intracellular ROS level after UVB irradiation (DCFH-DA, FACS) in keratinocytes; format: cell-based, human; conditions: 15 mJ/cm^2 UVB, peptide 1, 10, 50 μM, 24 hours after irradiation, FIG. 4B
Procedure: as §2
as §1, with “First, NIH3T3 cells and” for “First,”, “5×10^5” for “3×10^5”, “cell/well, respectively,” for “cell/well,”, “2.5 mM” for “100 nM”, “N-Acetylcysteine (NaC)” for “EGF”, “peptide.” for “peptide. The cells were cultured in a CO2 incubator at 37° C. for 24 hours.”
as §3

MMP-1 [1] = assay: MMP-1 protein expression increased by UV irradiation, western blot in fibroblasts; format: cell-based, mouse; conditions: NIH3T3 cells, 6 J/cm^2 UVA, peptide 1, 10, 50 μM, 24 hours after irradiation; FIG. 6A
Procedure: (§4) The expression of MMP-1 encoding proteins related to collagen degradation increases by ultraviolet irradiation. Therefore, it was confirmed whether the expression of the MMP-1 protein was inhibited again and the cell aging phenomenon was inhibited when treated with the peptide of the present invention.
(§5) First, NIH3T3 cells and HaCaT cells were seeded in a 6-well plate at a cell density of 5×10^5 cell/well, respectively, and then the cells were cultured in DMEM medium containing 10% fetal bovine serum (FBS) for 24 hours. The cultured cells were washed once with serum free DMEM medium, and the peptide of the present invention was mixed in 1 mL of the serum free DMEM medium at each of concentrations of 1, 10, and 50 μM, and dispensed into the cells. A positive control (PC) was treated with 2.5 mM of N-Acetylcysteine (NaC) instead of the above peptide.
(§6) The cells were cultured in a CO2 incubator at 37° C. for 1 hour. The medium of the cultured cells was transferred to a tube (e-tube), 1 ml of PBS was added, and then the NIH3T3 cells were irradiated with 6 J/cm^2 of UVA and the HaCaT cells were irradiated with 15 mJ/cm^2 of UVB using a UV irradiator (VILBER LOURMAT, Cat No.: 3102-BSU, France). After removing PBS, 900 μL of the medium transferred to the tube was added, and culture was performed in a CO2 incubator at 37° C. for 24 hours. […]

MMP-1 [2] = assay: MMP-1 protein expression increased by UV irradiation, western blot in keratinocytes; format: cell-based, human; conditions: HaCaT cells, 15 mJ/cm^2 UVB, peptide 1, 10, 50 μM, 24 hours after irradiation; FIG. 6B
Procedure: as §4, §5, §6

Which results are given for LCACCLHNCNECQ?
mRNA level of AQP3 (AQP3): increased; intracellular reactive oxygen species level increased by UV irradiation (NIH3T3 cells): decreased; intracellular reactive oxygen species level increased by UV irradiation (HaCaT cells): decreased; expression of MMP-1 increased by UV irradiation (MMP-1 [1]): inhibited; expression of MMP-1 increased by UV irradiation (MMP-1 [2]): inhibited
